Test results as given in patent US20260068888A1, “ALGICIDAL FOAM COMPOSITIONS AND METHODS OF MAKING AND USING THEREOF” (THE ADMINISTRATORS OF THE TULANE EDUCATIONAL FUND, priority 2024, published 2026).

System: Karenia brevis (KB) cells
Assay: SYTOX-Green assay of cell-membrane integrity
Type: cell-based
Description: SYTOX-Green Assay. The effects of treatments on the cells were also investigated utilizing the SYTOX-green assay, a technique designed to evaluate cell-membrane integrity. The SYTOX-green dye selectively permeates through compromised cell membranes and produces green-fluorescent color upon interaction with nucleic acid. […] For the assay protocol, a 1.0 ml aliquot of the cell suspension was incubated with 10 μl of the dye solution ([…]) for 15 minutes in the dark, resulting in a final dye concentration of […]. The dye concentration and the incubation time were validated by the heat-treated K. brevis cells for 1 h at 60° C. The cell suspension was then transferred in an optically clear well plate for visualization under an inverted fluorescence microscope (Ex: 465-495 nm; Em: 515 nm, long pass).

[1] = gallic acid 5 mg/mL in the foam stock solution, Tween 80 1.25 mg/mL

O.O=C(O)c1cc(O)c(O)c(O)c1 [gallic acid, Gallic acid monohydrate]
time by which non-viable cells become lysed (loss of green fluorescence) [1]: ≤ 6 h
time to membrane compromised cells (SYTOX-green) [1]: ≤ 3 h
cell green fluorescence (lysis), SYTOX-green (gallic acid in foam, 24 hours): almost total loss of cell green fluorescence
